Test [1] addresses T1, GABA-B receptor (Homo sapiens) (UniProt Q9UBS5+O75899). Nature of the test: Activation of human GABAB1/GABAB2 expressed in HEK293 cells co-transfected with rat CaV2.2 channel assessed as reduction in CaV2.2-mediated peak-current amplitude in response to depolarizing pulse at 1 nM by whole cell patch clamp assay relative to control. It counts as cell-based. The conditions noted are these: HEK293T.

For test [2], the target named is Neuronal acetylcholine receptor; alpha9/alpha10 (Homo sapiens, UniProt Q9GZZ6+Q9UGM1). Nature of the test: Inhibition of human alpha9alpha10 nAChR expressed in Xenopus laevis oocytes assessed as inhibition of Ach-induced response at -80 mV holding potential preincubated for 5 mins followed by Ach stimulation by two electrode voltage-clamp assay. Format: cell-based, Oocyte.
Chain of Neuronal acetylcholine receptor; alpha9/alpha10 (Q9UGM1 whole entry): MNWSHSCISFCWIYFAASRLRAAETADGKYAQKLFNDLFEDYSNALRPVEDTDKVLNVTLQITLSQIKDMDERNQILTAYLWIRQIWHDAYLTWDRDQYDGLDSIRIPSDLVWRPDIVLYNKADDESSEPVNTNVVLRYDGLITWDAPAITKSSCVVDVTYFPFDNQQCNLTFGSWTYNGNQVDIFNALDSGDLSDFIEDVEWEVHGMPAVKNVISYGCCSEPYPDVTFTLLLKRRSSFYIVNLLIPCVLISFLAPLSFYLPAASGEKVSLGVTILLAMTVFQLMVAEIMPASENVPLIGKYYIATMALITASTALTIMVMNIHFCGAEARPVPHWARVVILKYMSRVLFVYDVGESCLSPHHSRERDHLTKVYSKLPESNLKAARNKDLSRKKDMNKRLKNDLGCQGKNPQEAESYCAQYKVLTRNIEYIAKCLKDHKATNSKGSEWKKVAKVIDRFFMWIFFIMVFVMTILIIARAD
Chain of Neuronal acetylcholine receptor; alpha9/alpha10 (Q9GZZ6 whole entry): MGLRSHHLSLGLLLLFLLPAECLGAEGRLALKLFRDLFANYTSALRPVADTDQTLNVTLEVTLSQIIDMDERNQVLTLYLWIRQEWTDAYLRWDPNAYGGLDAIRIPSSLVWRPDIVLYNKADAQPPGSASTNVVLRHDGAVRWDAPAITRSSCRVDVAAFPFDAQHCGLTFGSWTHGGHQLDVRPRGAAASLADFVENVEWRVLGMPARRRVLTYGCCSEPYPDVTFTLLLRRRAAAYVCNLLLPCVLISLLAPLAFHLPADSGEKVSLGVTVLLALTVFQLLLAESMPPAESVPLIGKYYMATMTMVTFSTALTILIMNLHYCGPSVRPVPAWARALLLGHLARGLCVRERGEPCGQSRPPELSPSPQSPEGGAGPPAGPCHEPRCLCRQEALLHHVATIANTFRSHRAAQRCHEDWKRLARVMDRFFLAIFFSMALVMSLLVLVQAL

Test [3] concerns the target Nicotinic acetylcholine receptor alpha9/alpha10 (Rattus norvegicus, UniProt P43144+Q9JLB5). Nature of the test: Inhibition of rat alpha9alpha10 nAChR expressed in Xenopus laevis oocytes assessed as inhibition of Ach-induced response at -80 mV holding potential preincubated for 5 mins followed by Ach stimulation by two electrode voltage-clamp assay. It counts as cell-based, Oocyte.

In test [4] the test system is Rattus norvegicus. Nature of the test: Analgesic activity in Sprague-Dawley rat model of PNL injury-induced neuropathic pain assessed as pain threshold elevation percentage at 15 nmol/kg, IM administered as single dose measured after 2 to 2.5 hrs post dose. Format: functional. The settings on record: time 2-2.5 hrs.
Test [5] concerns Rattus norvegicus. Kind of test: Analgesic activity in Sprague-Dawley rat model of chronic constriction injury-induced neuropathic pain assessed as increase in pain threshold elevation percentage at 0.3 to 15 nmol/kg, IM administered as single dose measured after 2 to 2.5 hrs post dose. The settings on record: dose 0.3-15 nmol/kg, time 2-2.5 hrs. It counts as functional, organism-based.

For test [6], the system named is Rattus norvegicus. Kind of test: Analgesic activity in Sprague-Dawley rat model of PNL injury-induced neuropathic pain assessed as pain threshold elevation percentage at 0.3 nmol/kg, IM administered as single dose measured after 2 to 2.5 hrs post dose. It counts as functional. The conditions noted are these: time 2-2.5 hrs.
A further test has as its target GABA-B receptor (Homo sapiens, UniProt O75899+Q9UBS5). Kind of test: Activation of human GABAB1/GABAB2 expressed in HEK293 cells co-transfected with rat CaV2.2 channel assessed as reduction in CaV2.2-mediated peak-current amplitude in response to the depolarizing pulse by whole cell patch clamp assay. It counts as cell-based, HEK293T.
Test [7] is filed under the species Rattus norvegicus. Kind of test: Inhibition of TTX-resistant sodium channel in Sprague-Dawley rat DRG neuron at 10 uM at 10 mV holding potential by whole cell patch clamp technique.
The target in test [8] is T1, GABA-B receptor (Homo sapiens). Nature of the test: Activation of human GABAB1/GABAB2 expressed in HEK293 cells co-transfected with rat CaV2.2 channel assessed as reduction in CaV2.2-mediated Ba2+ peak-current amplitude in response to depolarizing pulse in presence of 1 uM GABAB receptor antagonist CGP55845 by whole cell patch clamp assay. It counts as cell-based. The conditions noted are these: HEK293T, time 6.0 hrs.

A further test deals with Neuron. Nature of the test: Inhibition of TTX-sensitive sodium channel in Sprague-Dawley rat DRG neuron at 10 uM at -10 mV holding potential by whole cell patch clamp technique. It counts as tissue-based.
Test [9] can be described thus: Selectivity index, ratio of IC50 for inhibition of rat alpha9alpha10 nAChR expressed in Xenopus laevis oocytes to IC50 for activation of human GABAB1/GABAB2 expressed in HEK293 cells co-transfected with rat CaV2.2 channel assessed as reduction in CaV2.2-mediated peak Ba2+ current amplitude. Format: cell-based.
Test [10] is described as follows: Selectivity index, ratio of IC50 for inhibition of human alpha9alpha10 nAChR expressed in Xenopus laevis oocytes to IC50 for activation of human GABAB1/GABAB2 expressed in HEK293 cells co-transfected with rat CaV2.2 channel assessed as reduction in CaV2.2-mediated peak-current amplitude. Format: cell-based.
Test [11] relates to Rattus norvegicus. Kind of test: Analgesic activity in Sprague-Dawley rat model of PNL injury-induced neuropathic pain assessed as pain threshold elevation percentage at 1.5 nmol/kg, IM administered as single dose measured after 2 to 2.5 hrs post dose. Format: functional. The settings on record: time 2-2.5 hrs.
The target in test [12] is Neuronal acetylcholine receptor; alpha3/beta2 (Rattus norvegicus) (UniProt P04757+P12390). Nature of the test: Inhibition of rat alpha3beta2 nAChR expressed in Xenopus laevis oocytes assessed as inhibition of Ach-induced response at 10 uM at -80 mV holding potential preincubated for 5 mins followed by Ach stimulation by two electrode voltage-clamp assay relative to control. The conditions noted are these: Oocyte. It counts as cell-based.

For test [13], the target named is Neuronal acetylcholine receptor; alpha2/beta2 (Rattus norvegicus) (UniProt P12389+P12390). Nature of the test: Inhibition of rat alpha2beta2 nAChR expressed in Xenopus laevis oocytes assessed as inhibition of Ach-induced response at 10 uM at -80 mV holding potential preincubated for 5 mins followed by Ach stimulation by two electrode voltage-clamp assay relative to control. Format: cell-based. The settings on record: Oocyte.

Test [14] has as its target Neuronal acetylcholine receptor; alpha2/beta4 (Rattus norvegicus) (UniProt P12389+P12392). Nature of the test: Inhibition of rat alpha2beta4 nAChR expressed in Xenopus laevis oocytes assessed as inhibition of Ach-induced response at 10 uM at -80 mV holding potential preincubated for 5 mins followed by Ach stimulation by two electrode voltage-clamp assay relative to control. The settings on record: Oocyte. Format: cell-based.

Test [15] concerns the target Neuronal acetylcholine receptor; alpha3/beta4 (Rattus norvegicus) (UniProt P04757+P12392). Nature of the test: Inhibition of rat alpha3beta4 nAChR expressed in Xenopus laevis oocytes assessed as inhibition of Ach-induced response at 10 uM at -80 mV holding potential preincubated for 5 mins followed by Ach stimulation by two electrode voltage-clamp assay relative to control. The conditions noted are these: Oocyte. Format: cell-based.

Test [16] addresses Neuronal acetylcholine receptor; alpha4/beta2 (Rattus norvegicus) (UniProt P09483+P12390). Kind of test: Inhibition of rat alpha4beta2 nAChR expressed in Xenopus laevis oocytes assessed as inhibition of Ach-induced response at 10 uM at -80 mV holding potential preincubated for 5 mins followed by Ach stimulation by two electrode voltage-clamp assay relative to control. Format: cell-based. The settings on record: Oocyte.

Test [17] deals with Neuronal acetylcholine receptor subunit alpha-7 (Rattus norvegicus) (UniProt Q05941). Nature of the test: Inhibition of rat alpha7 nAChR expressed in Xenopus laevis oocytes assessed as inhibition of Ach-induced response at 10 uM at -80 mV holding potential preincubated for 5 mins followed by Ach stimulation by two electrode voltage-clamp assay relative to control. The settings on record: Oocyte. It counts as cell-based.
Chain of Neuronal acetylcholine receptor subunit alpha-7 (Rattus norvegicus) (Q05941 whole entry): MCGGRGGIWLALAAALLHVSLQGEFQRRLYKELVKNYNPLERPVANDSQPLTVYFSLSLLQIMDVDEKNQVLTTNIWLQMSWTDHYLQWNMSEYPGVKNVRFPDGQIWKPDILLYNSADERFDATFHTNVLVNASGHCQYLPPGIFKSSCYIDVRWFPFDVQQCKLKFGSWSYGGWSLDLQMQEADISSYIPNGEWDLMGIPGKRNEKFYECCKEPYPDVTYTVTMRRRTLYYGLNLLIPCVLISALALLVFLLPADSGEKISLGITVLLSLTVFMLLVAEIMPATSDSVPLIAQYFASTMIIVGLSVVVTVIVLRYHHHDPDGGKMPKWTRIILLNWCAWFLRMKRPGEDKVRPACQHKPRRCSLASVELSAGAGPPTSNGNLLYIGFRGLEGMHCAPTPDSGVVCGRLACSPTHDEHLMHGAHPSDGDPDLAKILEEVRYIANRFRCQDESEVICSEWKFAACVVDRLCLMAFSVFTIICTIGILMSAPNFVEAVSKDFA

Test [18] concerns Rattus norvegicus. Kind of test: Analgesic activity in Sprague-Dawley rat model of PNL injury-induced neuropathic pain assessed as pain threshold elevation percentage at 0.3 to 15 nmol/kg, IM administered as single dose measured after 2 to 2.5 hrs post dose. It counts as functional, organism-based. The settings on record: dose 0.3-15 nmol/kg, time 2-2.5 hrs.

The values below come from ChEMBL document CHEMBL4680110 (2018).

Calls of active or inactive are those of the source. Peptide text beside a SMILES is read from it.

Chain of Nicotinic acetylcholine receptor alpha9/alpha10 (P43144 whole entry): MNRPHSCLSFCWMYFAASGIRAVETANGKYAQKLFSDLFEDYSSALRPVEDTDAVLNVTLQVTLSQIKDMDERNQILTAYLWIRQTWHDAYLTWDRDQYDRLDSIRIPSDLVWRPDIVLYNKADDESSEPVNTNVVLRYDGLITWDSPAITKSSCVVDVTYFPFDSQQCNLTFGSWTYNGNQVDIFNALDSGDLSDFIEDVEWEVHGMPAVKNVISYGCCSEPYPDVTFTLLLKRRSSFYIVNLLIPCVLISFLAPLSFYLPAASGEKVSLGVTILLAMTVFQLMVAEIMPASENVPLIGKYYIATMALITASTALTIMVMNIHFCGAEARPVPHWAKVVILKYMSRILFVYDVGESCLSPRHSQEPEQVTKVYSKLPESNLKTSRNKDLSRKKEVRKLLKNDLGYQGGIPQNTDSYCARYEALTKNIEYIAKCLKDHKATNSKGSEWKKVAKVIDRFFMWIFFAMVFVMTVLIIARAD
Chain of Nicotinic acetylcholine receptor alpha9/alpha10 (Q9JLB5 whole entry): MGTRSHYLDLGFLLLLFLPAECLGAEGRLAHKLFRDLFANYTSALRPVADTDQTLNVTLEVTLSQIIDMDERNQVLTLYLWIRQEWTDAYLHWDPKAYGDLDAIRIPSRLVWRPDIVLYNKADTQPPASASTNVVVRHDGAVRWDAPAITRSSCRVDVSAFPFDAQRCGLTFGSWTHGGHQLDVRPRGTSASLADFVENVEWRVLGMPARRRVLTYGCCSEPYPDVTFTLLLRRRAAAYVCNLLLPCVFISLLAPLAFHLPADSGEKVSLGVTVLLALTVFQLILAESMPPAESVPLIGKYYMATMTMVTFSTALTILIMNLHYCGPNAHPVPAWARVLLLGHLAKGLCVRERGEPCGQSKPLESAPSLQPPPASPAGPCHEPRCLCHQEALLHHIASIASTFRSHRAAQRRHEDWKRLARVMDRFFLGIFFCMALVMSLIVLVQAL
Chain of GABA-B receptor (Q9UBS5 whole entry): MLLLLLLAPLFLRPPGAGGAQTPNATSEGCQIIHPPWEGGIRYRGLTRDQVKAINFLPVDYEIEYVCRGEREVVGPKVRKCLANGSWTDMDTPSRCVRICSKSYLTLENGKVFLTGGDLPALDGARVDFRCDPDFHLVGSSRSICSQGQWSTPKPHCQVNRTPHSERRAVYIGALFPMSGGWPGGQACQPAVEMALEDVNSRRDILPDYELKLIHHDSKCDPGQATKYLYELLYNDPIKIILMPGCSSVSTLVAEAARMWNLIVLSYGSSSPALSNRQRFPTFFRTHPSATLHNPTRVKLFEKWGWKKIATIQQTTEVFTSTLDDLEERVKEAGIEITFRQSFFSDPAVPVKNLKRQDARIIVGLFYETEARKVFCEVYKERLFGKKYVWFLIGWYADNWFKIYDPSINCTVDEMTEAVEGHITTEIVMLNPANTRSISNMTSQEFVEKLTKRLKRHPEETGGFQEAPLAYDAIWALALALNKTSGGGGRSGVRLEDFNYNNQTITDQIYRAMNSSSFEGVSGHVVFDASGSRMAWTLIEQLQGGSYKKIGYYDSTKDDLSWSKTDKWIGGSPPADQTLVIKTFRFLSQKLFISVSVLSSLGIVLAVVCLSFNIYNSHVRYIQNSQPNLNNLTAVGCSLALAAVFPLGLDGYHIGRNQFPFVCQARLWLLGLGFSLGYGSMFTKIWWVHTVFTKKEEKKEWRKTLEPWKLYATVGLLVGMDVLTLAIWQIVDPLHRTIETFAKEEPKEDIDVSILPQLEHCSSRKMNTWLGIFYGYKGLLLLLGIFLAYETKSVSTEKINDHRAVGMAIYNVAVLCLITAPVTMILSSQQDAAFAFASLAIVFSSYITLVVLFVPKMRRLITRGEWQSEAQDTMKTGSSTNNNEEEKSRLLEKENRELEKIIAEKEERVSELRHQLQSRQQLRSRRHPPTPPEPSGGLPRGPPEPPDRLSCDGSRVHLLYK
Chain of GABA-B receptor (O75899 whole entry): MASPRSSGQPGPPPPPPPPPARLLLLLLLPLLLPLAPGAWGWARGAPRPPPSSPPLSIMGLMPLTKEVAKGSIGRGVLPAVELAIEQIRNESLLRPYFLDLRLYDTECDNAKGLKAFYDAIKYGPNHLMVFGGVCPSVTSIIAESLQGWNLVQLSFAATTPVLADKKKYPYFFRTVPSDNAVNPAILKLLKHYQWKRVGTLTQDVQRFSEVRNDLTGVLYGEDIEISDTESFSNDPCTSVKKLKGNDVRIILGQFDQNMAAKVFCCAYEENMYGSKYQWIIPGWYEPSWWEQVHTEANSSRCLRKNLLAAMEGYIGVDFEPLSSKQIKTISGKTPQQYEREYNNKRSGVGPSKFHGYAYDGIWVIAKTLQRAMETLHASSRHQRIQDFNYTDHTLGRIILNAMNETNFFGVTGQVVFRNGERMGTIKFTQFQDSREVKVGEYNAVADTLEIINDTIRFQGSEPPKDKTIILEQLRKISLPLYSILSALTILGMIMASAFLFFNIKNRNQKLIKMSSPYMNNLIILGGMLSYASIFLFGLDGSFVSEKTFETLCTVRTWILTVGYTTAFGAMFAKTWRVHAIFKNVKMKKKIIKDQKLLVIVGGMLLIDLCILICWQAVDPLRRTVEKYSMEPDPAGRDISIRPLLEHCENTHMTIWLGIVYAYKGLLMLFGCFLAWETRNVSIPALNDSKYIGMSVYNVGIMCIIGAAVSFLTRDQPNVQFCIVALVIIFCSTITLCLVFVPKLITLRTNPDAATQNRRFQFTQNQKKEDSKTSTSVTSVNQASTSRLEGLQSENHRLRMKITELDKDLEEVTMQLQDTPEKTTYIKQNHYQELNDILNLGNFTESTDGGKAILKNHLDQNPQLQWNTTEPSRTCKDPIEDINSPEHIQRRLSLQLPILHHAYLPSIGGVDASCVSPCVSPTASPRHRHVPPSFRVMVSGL

In the case of `CC[C@H](C)[C@H](NC(=O)[C@H](CCC(=O)O)NC(=O)[C@@H]1CCCN1C(=O)[C@H](Cc1cnc[nH]1)NC(=O)[C@H](CC(=O)O)NC(=O)[C@H](Cc1ccc(O)cc1)NC(=O)[C@H](CC(N)=O)NC(=O)[C@H](CS)NC(=O)[C@H](CCCNC(=N)N)NC(=O)[C@@H]1CCCN1C(=O)[C@H](CC(=O)O)NC(=O)[C@H](CO)NC(=O)[C@H](CS)NC(=O)[C@H](CS)NC(=O)CN)C(=O)N[C@@H](CS)C(N)=O`, the inhibition in test [1] amounted to 18.8%. Also, the 50% inhibitory concentration (IC50) in [2] came to 1000 nM; in test [3], 28.3 nM; at GABA-B receptor, 2.4 nM. The Activity in the test on Rattus norvegicus [4] came out at 51.1%; in the test with Rattus norvegicus [6] it was 12.2%; with Rattus norvegicus [11] it was 25.6%. The outcome in the test on Rattus norvegicus [5] was Active. For the same compound, the inhibition result in the test filed under Rattus norvegicus [7] and in the test with Neuron was “inactive” in each case. Moreover, the result in [8] was inactive. Moreover, the Ratio IC50 was 11.8 in test [9] and 417 in [10].

With `CC[C@H](C)[C@H](NC(=O)[C@H](CCC(=O)O)NC(=O)[C@@H]1CCCN1C(=O)[C@H](Cc1cnc[nH]1)NC(=O)[C@H](CC(=O)O)NC(=O)[C@H](Cc1ccc(O)cc1)NC(=O)[C@H](CC(N)=O)NC(=O)[C@H](CS)NC(=O)[C@H](CCCNC(=N)N)NC(=O)[C@@H]1CCCN1C(=O)[C@H](CC(=O)O)NC(=O)[C@H](CO)NC(=O)[C@H](CS)NC(=O)[C@H](CS)NC(=O)CNC(=O)c1ccccc1)C(=O)N[C@@H](CS)C(N)=O`, the figures for the 50% inhibitory concentration (IC50) (in test [2]; on GABA-B receptor) were 12500 nM and 1.2 nM, respectively. Moreover, the Ratio IC50 in test [10] is more than 10000.

Turning to `CC[C@H](C)[C@H](NC(=O)[C@H](CCC(=O)O)NC(=O)[C@@H]1CCCN1C(=O)[C@H](Cc1cnc[nH]1)NC(=O)[C@H](CC(=O)O)NC(=O)[C@H](Cc1ccc(O)cc1)NC(=O)[C@H](CCCNC(=N)N)NC(=O)[C@H](CS)NC(=O)[C@H](CCCNC(=N)N)NC(=O)[C@@H]1CCCN1C(=O)[C@H](CC(=O)O)NC(=O)[C@H](CO)NC(=O)[C@H](CS)NC(=O)[C@H](CS)NC(=O)CNC(C)=O)C(=O)N[C@@H](CS)C(N)=O` (Ac-GCCSDPRCRYDHPEIC-NH2), the 50% inhibitory concentration (IC50) in test [3] came to 2420 nM; on GABA-B receptor, 18.9 nM. Besides, the Activity with Rattus norvegicus [4] came out at 24.8%. Moreover, in test [9], the Ratio IC50 was found to be 128.

As for `CC[C@H](C)[C@H](NC(=O)[C@H](CCC(=O)O)NC(=O)[C@@H]1CCCN1C(=O)[C@H](Cc1cnc[nH]1)NC(=O)[C@H](CC(=O)O)NC(=O)[C@H](Cc1ccc(O)cc1)NC(=O)[C@H](CCCNC(=N)N)NC(=O)[C@H](CS)NC(=O)[C@H](CCCNC(=N)N)NC(=O)[C@@H]1CCCN1C(=O)[C@H](CC(=O)O)NC(=O)[C@H](CO)NC(=O)[C@H](CS)NC(=O)[C@@H](N)CS)C(=O)N[C@@H](CS)C(N)=O` (H-CCSDPRCRYDHPEIC-NH2), in the test with Rattus norvegicus [4], the Activity was 32.5%. The 50% inhibitory concentration (IC50) at GABA-B receptor was 23.2 nM.

Turning to `CC[C@H](C)[C@H](NC(=O)[C@H](CCC(=O)O)NC(=O)[C@@H]1CCCN1C(=O)[C@H](Cc1cnc[nH]1)NC(=O)[C@H](CC(=O)O)NC(=O)[C@H](Cc1ccc(O)cc1)NC(=O)[C@H](CCCNC(=N)N)NC(=O)[C@H](CS)NC(=O)[C@H](CCCNC(=N)N)NC(=O)[C@@H]1CCCN1C(=O)[C@H](CC(=O)O)NC(=O)[C@H](CO)NC(=O)[C@H](CS)NC(=O)[C@H](CS)NC(=O)CN)C(=O)N[C@@H](CS)C(N)=O` (H-GCCSDPRCRYDHPEIC-NH2), the inhibition in [1] was 19.6%; in test [12], more than 50%; in test [13] it was more than 50%; in [14], more than 50%; in test [15], more than 50%; in test [16], more than 50%. Also, the inhibition in test [17] is more than 50%. Also, the IC50 in test [2] amounted to 363 nM; in test [3] it was 4900 nM; at GABA-B receptor, 4.9 nM. Further, the Activity is 85% with Rattus norvegicus [4], 16.7% with Rattus norvegicus [6], 47.2% in the test with Rattus norvegicus [11] and “Dose-dependent effect” with Rattus norvegicus [18]. The outcome in the test with Rattus norvegicus [5] was Active. For the same compound, the inhibition entry in the test filed under Rattus norvegicus [7] and in the test on Neuron was “inactive” in each case. Moreover, the result in [8] was inactive. In addition, the Ratio IC50 in test [9] was 1000; in [10] it was 74.1.

As for `CC[C@H](C)[C@H](NC(=O)[C@H](CCC(=O)O)NC(=O)[C@@H]1CCCN1C(=O)[C@H](Cc1cnc[nH]1)NC(=O)[C@H](CC(N)=O)NC(=O)[C@H](Cc1ccc(O)cc1)NC(=O)[C@H](CCCNC(=N)N)NC(=O)[C@H](CS)NC(=O)[C@H](CCCNC(=N)N)NC(=O)[C@@H]1CCCN1C(=O)[C@H](CC(=O)O)NC(=O)[C@H](CO)NC(=O)[C@H](CS)NC(=O)[C@H](CS)NC(=O)CN)C(=O)N[C@@H](CS)C(N)=O` (H-GCCSDPRCRYNHPEIC-NH2), the IC50 in test [3] is 13900 nM; at GABA-B receptor, more than 1000 nM. Besides, the Activity in the test with Rattus norvegicus [4] is 40.8%. Moreover, the Ratio IC50 in test [9] was less than 13.9.

As for `CC[C@H](C)[C@H](NC(=O)[C@H](CCC(=O)O)NC(=O)[C@@H]1CCCN1C(=O)[C@H](Cc1cnc[nH]1)NC(=O)[C@H](CCCNC(=N)N)NC(=O)[C@H](Cc1ccc(O)cc1)NC(=O)[C@H](CCCNC(=N)N)NC(=O)[C@H](CS)NC(=O)[C@H](CCCNC(=N)N)NC(=O)[C@@H]1CCCN1C(=O)[C@H](CC(=O)O)NC(=O)[C@H](CO)NC(=O)[C@H](CS)NC(=O)[C@H](CS)NC(=O)CN)C(=O)N[C@@H](CS)C(N)=O` (H-GCCSDPRCRYRHPEIC-NH2), the Activity with Rattus norvegicus [4] was 35.3%. In addition, the IC50 at GABA-B receptor was more than 1000 nM.

Consider `CC[C@H](C)[C@H](NC(=O)[C@H](CCC(=O)O)NC(=O)[C@@H]1CCCN1C(=O)[C@H](Cc1cnc[nH]1)NC(=O)[C@H](CO)NC(=O)[C@H](Cc1ccc(O)cc1)NC(=O)[C@H](CCCNC(=N)N)NC(=O)[C@H](CS)NC(=O)[C@H](CCCNC(=N)N)NC(=O)[C@@H]1CCCN1C(=O)[C@H](CC(=O)O)NC(=O)[C@H](CO)NC(=O)[C@H](CS)NC(=O)[C@H](CS)NC(=O)CN)C(=O)N[C@@H](CS)C(N)=O` (H-GCCSDPRCRYSHPEIC-NH2), for which the Activity with Rattus norvegicus [4] was determined as 9%. Moreover, at GABA-B receptor, the IC50 was found to be 18.6 nM.
